This is an account of results in patent EP4578861A1, “NOVEL TRICYCLIC HETEROCYCLIC CARBALDEHYDE COMPOUND AND PHARMACEUTICAL COMPOSITION, CONTAINING SAME, FOR IRE1ALPHA INHIBITION” (Hanmi Pharm. Co., Ltd., priority 2022, dated 2024).

For orientation: IC50 means the concentration that inhibits the measured activity by half.

SMILES strings stand for the structures. Some results are limits rather than exact numbers.

In this experiment the test system is spliced XBP1. The experiment can be described thus: Spliced XBP1 mRNA measurement test (RT-PCR, tunicamycin-induced ER stress in MCF-7 cells). Type of experiment: cell-based. Conditions: Homo sapiens, MCF7, compound pre-treated for 1 hour, then 2 µg/mL tunicamycin for 6 or 24 hours, spliced XBP1 corrected by total XBP1. As to the method: With respect to these synthetic compounds, reverse transcription polymerase chain reaction (RT-PCR) experiments were conducted on MCF-7 cancer cells to confirm the effect thereof on the mRNA and protein amounts of spliced XBP1, which is the target of IRE endonuclease. A reverse transcription polymerase chain reaction is a test method in which RNA is extracted from cells, reverse transcriptase is used to make cDNA, and relative mRNA expression level is measured through a polymerase chain reaction.
Briefly, MCF-7 cells were seeded in a 12-well plate and cultured in an incubator including 5% CO2 for one day. On the next day, compounds, which were 10-fold serially diluted from 10,000 nM, were pre-treated for 1 hour, and then, treated with 2 µg/mL tunicamycin for 6 or 24 hours to induce endoplasmic reticulum stress, followed by cell lysis to obtain RNA. RNA was subjected to the procedure of RNeasy Kits (Qiagen, 74106), and 5 µg of RNA sample was dissolved in a sample including reverse transcriptase and dNTP, and reverse transcription reaction was performed with a thermal cycler. The amount of mRNA of each of spliced XBP1 and total XBP1 was measured by a polymerase chain reaction through real time PCR by mixing each cDNA sample with a PCR reaction mixture including a primer pair capable of binding specifically to each target and SYBR green dye. The expression level of spliced XBP1 was corrected by the total expression level of XBP1, and the relative expression levels of spliced XBP1 between samples were compared and analyzed.
For `Cc1c(CC(=O)N2CCOCC2)c(=O)oc2c(C=O)c(O)c3c(c12)CCO3` [Example 1, 4-hydroxy-9-methyl-8-(2-morpholino-2-oxoethyl)-7-oxo-1,7-dihydro-2H-furo[3,2-f]chromene-5-carbaldehyde], the IC50 was below 100 nM.
Regarding `Cc1c(CC(=O)N2CCOCC2)c(=O)oc2c(C=O)c(O)c3c(c12)OCO3` [Example 2, 4-hydroxy-9-methyl-8-(2-morpholino-2-oxoethyl)-7-oxo-7H-[1,3]dioxolo[4,5-f]chromene-5-carbaldehyde], the IC50 fell in the range of 100 to 200 nM.
The figure for `Cc1c(CC(=O)N2CCOCC2)c(=O)oc2c(C=O)c(O)c3c(c12)CCCO3` [Example 3, 6-hydroxy-1-methyl-2-(2-morpholino-2-oxoethyl)-3-oxo-3,8,9,10-tetrahydropyrano[3,2-f]chromene-5-carbaldehyde] is below 100 nM.
Under `Cc1c(CC(=O)N2CCC(C)CC2)c(=O)oc2c(C=O)c(O)c3c(c12)CCCO3` [Example 4, 6-hydroxy-1-methyl-2-(2-(4-methylpiperidin-1-yl)-2-oxoethyl)-3-oxo-3,8,9,10-tetrahydropyrano[3,2-f]chromene-5-carbaldehyde] stands at least 200 nM.
Under `Cc1c(CC(=O)N2CCCC2)c(=O)oc2c(C=O)c(O)c3c(c12)CCCO3` [Example 5, 6-hydroxy-1-methyl-3-oxo-2-(2-oxo-2-(pyrrolidin-1-yl)ethyl)-3,8,9,10-tetrahydropyrano[3,2-f]chromene-5-carbaldehyde] stands below 100 nM; under `Cc1c(CC(=O)N2CCN(C)CC2)c(=O)oc2c(C=O)c(O)c3c(c12)CCCO3` [Example 6, 6-hydroxy-1-methyl-2-(2-(4-methylpiperazin-1-yl)-2-oxoethyl)-3-oxo-3,8,9,10-tetrahydropyrano[3,2-f]chromene-5-carbaldehyde], below 100 nM.
For `Cc1c(CC(=O)N2CCN(C(C)C)CC2)c(=O)oc2c(C=O)c(O)c3c(c12)CCCO3` [Example 7, 6-hydroxy-2-(2-(4-isopropylpiperazin-1-yl)-2-oxoethyl)-1-methyl-3-oxo-3,8,9,10-tetrahydropyrano[3,2-f]chromene-5-carbaldehyde], the IC50 was in the range of 100 to 200 nM.
The figure for `CCNC(=O)Cc1c(C)c2c3c(c(O)c(C=O)c2oc1=O)OCC3` [Example 8, N-ethyl-2-(5-formyl-4-hydroxy-9-methyl-7-oxo-1,7-dihydro-2H-furo[3,2-f]chromen-8-yl)acetamide] is below 100 nM; for `CCN(CC)C(=O)Cc1c(C)c2c3c(c(O)c(C=O)c2oc1=O)OCC3` [Example 9, N,N-diethyl-2-(5-formyl-4-hydroxy-9-methyl-7-oxo-1,7-dihydro-2H-furo[3,2-f]chromen-8-yl)acetamide] it is below 100 nM; for `Cc1c(CC(=O)N2CCC(F)(F)C2)c(=O)oc2c(C=O)c(O)c3c(c12)CCCO3` [Example 10, 2-(2-(3,3-difluoropyrrolidin-1-yl)-2-oxoethyl)-6-hydroxy-1-methyl-3-oxo-3,8,9,10-tetrahydropyrano[3,2-f]chromene-5-carbaldehyde] it is below 100 nM.
Under `Cc1c(CC(=O)N2CCC(C)C2)c(=O)oc2c(C=O)c(O)c3c(c12)CCCO3` (stereo not drawn) [Example 11, 6-hydroxy-1-methyl-2-(2-(3-methylpyrrolidin-1-yl)-2-oxoethyl)-3-oxo-3,8,9,10-tetrahydropyrano[3,2-f]chromene-5-carbaldehyde] stands below 100 nM; under `Cc1c(CC(=O)N2CCC(C)(C)C2)c(=O)oc2c(C=O)c(O)c3c(c12)CCCO3` [Example 12, 2-(2-(3,3-dimethylpyrrolidin-1-yl)-2-oxoethyl)-6-hydroxy-1-methyl-3-oxo-3,8,9,10-tetrahydropyrano[3,2-f]chromene-5-carbaldehyde], 100 to 200 nM; under `Cc1c(CC(=O)N2CCC2)c(=O)oc2c(C=O)c(O)c3c(c12)CCCO3` [Example 13, 2-(2-(azetidin-1-yl)-2-oxoethyl)-6-hydroxy-1-methyl-3-oxo-3,8,9,10-tetrahydropyrano[3,2-f]chromene-5-carbaldehyde], 100 to 200 nM.
As to `COC1CCN(C(=O)Cc2c(C)c3c4c(c(O)c(C=O)c3oc2=O)OCCC4)C1` (stereo not drawn) [Example 14, 6-hydroxy-2-(2-(3-methoxypyrrolidin-1-yl)-2-oxoethyl)-1-methyl-3-oxo-3,8,9,10-tetrahydropyrano[3,2-f]chromene-5-carbaldehyde], the IC50 lay within 100 to 200 nM.
On to `COC1CN(C(=O)Cc2c(C)c3c4c(c(O)c(C=O)c3oc2=O)OCCC4)C1` [Example 15, 6-hydroxy-2-(2-(3-methoxyazetidin-1-yl)-2-oxoethyl)-1-methyl-3-oxo-3,8,9,10-tetrahydropyrano[3,2-f]chromene-5-carbaldehyde], for which the IC50 was in the range of 100 to 200 nM.
With `Cc1c(CC(=O)N2CCC(F)C2)c(=O)oc2c(C=O)c(O)c3c(c12)CCCO3` (stereo not drawn) [Example 16, 2-(2-(3-fluoropyrrolidin-1-yl)-2-oxoethyl)-6-hydroxy-1-methyl-3-oxo-3,8,9,10-tetrahydropyrano[3,2-f]chromene-5-carbaldehyde], the IC50 was at least 200 nM.
The figure for `CCNC(=O)Cc1c(C)c2c3c(c(O)c(C=O)c2oc1=O)OCCC3` [Example 17, N-ethyl-2-(5-formyl-6-hydroxy-1-methyl-3-oxo-3,8,9,10-tetrahydropyrano[3,2-f]chromen-2-yl)acetamide] is below 100 nM; for `CCc1c(CC(=O)N2CCCC2)c(=O)oc2c(C=O)c(O)c3c(c12)CCCO3` [Example 18, 1-ethyl-6-hydroxy-3-oxo-2-(2-oxo-2-(pyrrolidin-1-yl)ethyl)-3,8,9,10-tetrahydropyrano[3,2-f]chromene-5-carbaldehyde] it is at least 200 nM.
Under `Cc1c(CC(=O)N2CC(F)C2)c(=O)oc2c(C=O)c(O)c3c(c12)CCCO3` [Example 19, 2-(2-(3-fluoroazetidin-1-yl)-2-oxoethyl)-6-hydroxy-1-methyl-3-oxo-3,8,9,10-tetrahydropyrano[3,2-f]chromene-5-carbaldehyde] stands 100 to 200 nM; under `Cc1c(CC(=O)N2CCC3(CC3)C2)c(=O)oc2c(C=O)c(O)c3c(c12)CCCO3` [Example 20, 6-hydroxy-1-methyl-3-oxo-2-(2-oxo-2-(5-azaspiro[2.4]heptan-5-yl)ethyl)-3,8,9,10-tetrahydropyrano[3,2-f]chromene-5-carbaldehyde], 100 to 200 nM.
With `Cc1c(CC(=O)N2CCCCC2)c(=O)oc2c(C=O)c(O)c3c(c12)CCCO3` [Example 21, 6-hydroxy-1-methyl-3-oxo-2-(2-oxo-2-(piperidin-1-yl)ethyl)-3,8,9,10-tetrahydropyrano[3,2-f]chromene-5-carbaldehyde], the IC50 was at least 200 nM.
Under `Cc1c(CC(N)=O)c(=O)oc2c(C=O)c(O)c3c(c12)CCCO3` [Example 22, 2-(5-formyl-6-hydroxy-1-methyl-3-oxo-3,8,9,10-tetrahydropyrano[3,2-f]chromen-2-yl)acetamide] stands at least 200 nM; under `CC(C)c1c(CC(=O)N2CCCC2)c(=O)oc2c(C=O)c(O)c3c(c12)CCCO3` [Example 23, 6-hydroxy-1-isopropyl-3-oxo-2-(2-oxo-2-(pyrrolidin-1-yl)ethyl)-3,8,9,10-tetrahydropyrano[3,2-f]chromene-5-carbaldehyde], 100 to 200 nM.
The figure for `COCCNC(=O)Cc1c(C)c2c3c(c(O)c(C=O)c2oc1=O)OCCC3` [Example 24, 2-(5-formyl-6-hydroxy-1-methyl-3-oxo-3,8,9,10-tetrahydropyrano[3,2-f]chromen-2-yl)-N-(2-methoxyethyl)acetamide] is below 100 nM; for `CCN(CC)C(=O)Cc1c(C)c2c3c(c(O)c(C=O)c2oc1=O)OCCC3` [Example 25, N,N-diethyl-2-(5-formyl-6-hydroxy-1-methyl-3-oxo-3,8,9,10-tetrahydropyrano[3,2-f]chromen-2-yl)acetamide] it is below 100 nM; for `CC(=O)N1CCN(C(=O)Cc2c(C)c3c4c(c(O)c(C=O)c3oc2=O)OCCC4)CC1` [Example 26, 2-(2-(4-acetylpiperazin-1-yl)-2-oxoethyl)-6-hydroxy-1-methyl-3-oxo-3,8,9,10-tetrahydropyrano[3,2-f]chromene-5-carbaldehyde] it is at least 200 nM.
Under `Cc1c(CC(=O)N2CC3CC2CO3)c(=O)oc2c(C=O)c(O)c3c(c12)CCCO3` (stereo not drawn) [Example 27, 2-(2-(2-oxa-5-azabicyclo[2.2.1]heptan-5-yl)-2-oxoethyl)-6-hydroxy-1-methyl-3-oxo-3,8,9,10-tetrahydropyrano[3,2-f]chromene-5-carbaldehyde] stands below 100 nM; under `Cc1c(CC(=O)N2CCSCC2)c(=O)oc2c(C=O)c(O)c3c(c12)CCCO3` [Example 28, 6-hydroxy-1-methyl-3-oxo-2-(2-oxo-2-thiomorpholinoethyl)-3,8,9,10-tetrahydropyrano[3,2-f]chromene-5-carbaldehyde], 100 to 200 nM; under `Cc1c(CC(=O)NCCN2CCOCC2)c(=O)oc2c(C=O)c(O)c3c(c12)CCCO3` [Example 29, 2-(5-formyl-6-hydroxy-1-methyl-3-oxo-3,8,9,10-tetrahydropyrano[3,2-f]chromen-2-yl)-N-(2-morpholinoethyl)acetamide], at least 200 nM.
For the compound `Cc1c(CC(=O)N2CCSC2)c(=O)oc2c(C=O)c(O)c3c(c12)CCCO3` [Example 30, 6-hydroxy-1-methyl-3-oxo-2-(2-oxo-2-(thiazolidin-3-yl)ethyl)-3,8,9,10-tetrahydropyrano[3,2-f]chromene-5-carbaldehyde], the IC50 was below 100 nM.
